Where two headings read alike, the source gives them in different places.

Data set [1] relates to ID-8 (murine ovarian cancer) cell line. In words: cells. The following applies: Mus musculus, 72 h, read-out: Cytotoxicity IC50, ID-8.
Another data set is described as follows: in vitro. The following applies: human.
The test system of data set [2] is MX-1 (human breast cancer) cell line. In words: cells. The settings on record: 72 h, read-out: Cytotoxicity IC50, MX-1.
Data set [3] relates to ID-8 (murine ovarian cancer) cell line.
For data set [4], the system named is WI-38 (human lung fibroblast, normal) cell line.
For data set [5], the system named is MX-1 (human breast cancer) cell line.

For orientation: IC50 means the point on the concentration scale where inhibition reaches its midpoint. Take `CC(=O)O[C@H]1C(=O)[C@@]2(C)[C@H]([C@H](OC(=O)c3ccccc3)[C@]3(O)C[C@H](OC(=O)[C@H](O)[C@@H](NC(=O)c4ccccc4)c4ccccc4)C(C)=C1C3(C)C)[C@]1(OC(C)=O)CO[C@@H]1C[C@@H]2O` [paclitaxel]: the IC50 is 21.2 ± 4.3 nM in data set [1], 175 ± 51.6 nM in “in vitro” and 3.83 ± 0.59 nM in data set [2].

Consider “SB-T-1214 [compound 4, reference compound]”, for which the half-inhibitory concentration (IC50) in data set [3] was 1.89 ± 0.3 nM; in data set [4] it was 4.14 ± 0.82 nM; in data set [5], 2.9 ± 0.47 nM.

(Values after PMC5928494 (ACS Omega, 2018).)
